# Measurements as given in US20230322722A1, “MODULATORS OF MYC FAMILY PROTO-ONCOGENE PROTEIN” (Nalo Therapeutics, priority 2020, published 2023).
# How the values were obtained:
# MycC protein (c-myc) = target: T1, MycC protein (c-myc) (Homo sapiens, UniProt P01106); test: Degradation of MycC protein, 24 h treatment, JESS Western, L363 cells (Example 161); type: cell-based; conditions: L-363 cells
# T1 construct: either 2×10^6 of L-363 (human leukemia cell line) cells; endogenous in cells; host or cells: L-363 / L363 human leukemia cells
# Procedure: (§1) For L363 cells (suspension), 1E6 cells were plated into each well of a 6 well plate. For SK-N-BE(2) cells (adherent), 5E5 cells were plated into each well of a 6 well dish. […] All compounds were diluted to 10 mM in DMSO. Cells were treated with the compound for 24 hrs, then for both cell types, media containing cells were removed from wells into a 15 ml centrifuge tube, and remaining adherent SK-N-BE(2) cells were also scraped from the wells into the appropriate tubes. Tubes were centrifuged, cells were washed with PBS then re-centrifuged to pellet cells. A RIPA buffer cocktail was added to the cells on ice for 5 mins. Cell lysates were clarified by centrifugation and stored at −80 degrees until required. BCA assay was performed on each lysate to determine the protein concentration.
# (§2) For validation studies of antibodies, lysates and antibodies were used at a number of concentrations (Lysates: 2, 1, 0.2 mg/ml; Antibodies: 1 in 50, 1 in 200 dilution). Once an appropriate lysate concentration and antibody concentration was determined, samples were screened in the JESS technology (Protein Simple, San Jose, CA—https://www.proteinsimple.com/jess.html).
# (§3) Target protein antibodies (n-myc and c-myc) were detected in the chemi-luminescence channel and loading controls (tubulin and GAPDH) were detected using a Near Infra Red (NIR) labeled secondary antibody.
# (§4) For SK-N-EB2 adherent cells, 5E5 cells in 1.9 mls media were plated into 6 well dishes and incubated for 24 hrs. […] Cells were scrapped off the plate, centrifuged, washed with PBS, centrifuged, then a RIPA buffer cocktail added to the cells (100 ul), centrifuged and stored at −80 for later analysis. For L363 suspension cells, 1E6 cells were plated into […] (950 ul media) and incubated for 24 hrs. […] Cells were aspirated into tubes, centrifuged, washed with PBS, centrifuged, then a RIPA buffer cocktail added to the cells (100 ul), centrifuged and stored at −80 for later analysis.
# (§5) For Western blot, a BCA (total protein) assay was run on all samples, these were then run in batches of 5 compounds plus control (DMSO) on each Western blot run—n-myc and c-myc were run in separate experiments in the chemiluminescence channel. Both tubulin and GAPDH were run as loading controls in all lanes in the near infra red channel.
# MycN protein (n-myc) = target: T2, MycN protein (n-myc) (Homo sapiens, UniProt P04198); test: Degradation of MycN protein, 24 h treatment, JESS Western, SK-N-BE(2) cells (Example 161); type: cell-based; conditions: SKNBE2 cells
# T2 construct: either 2×10^6 of L-363 (human leukemia cell line) or SKNBE2 (neuroblastoma cell line) cells; endogenous in cells; host or cells: SKNBE2 / SK-N-BE(2) neuroblastoma cells
# T2 sequence (P04198 1-464): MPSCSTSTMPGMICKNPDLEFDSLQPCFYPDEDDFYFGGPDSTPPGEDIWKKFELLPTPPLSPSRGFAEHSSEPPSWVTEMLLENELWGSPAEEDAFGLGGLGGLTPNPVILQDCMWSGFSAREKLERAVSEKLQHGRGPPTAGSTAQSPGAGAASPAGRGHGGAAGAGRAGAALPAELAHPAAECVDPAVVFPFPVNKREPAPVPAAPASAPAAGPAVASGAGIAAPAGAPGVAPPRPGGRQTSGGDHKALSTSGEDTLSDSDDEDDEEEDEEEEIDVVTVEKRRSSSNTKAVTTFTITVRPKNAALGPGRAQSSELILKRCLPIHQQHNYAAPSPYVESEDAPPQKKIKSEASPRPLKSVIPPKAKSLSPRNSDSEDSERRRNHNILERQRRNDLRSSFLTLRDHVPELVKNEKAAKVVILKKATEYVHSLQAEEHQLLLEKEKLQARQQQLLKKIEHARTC
# Procedure: as §1, §2, §3, §4, §5
# T1 sequence (P01106 whole entry): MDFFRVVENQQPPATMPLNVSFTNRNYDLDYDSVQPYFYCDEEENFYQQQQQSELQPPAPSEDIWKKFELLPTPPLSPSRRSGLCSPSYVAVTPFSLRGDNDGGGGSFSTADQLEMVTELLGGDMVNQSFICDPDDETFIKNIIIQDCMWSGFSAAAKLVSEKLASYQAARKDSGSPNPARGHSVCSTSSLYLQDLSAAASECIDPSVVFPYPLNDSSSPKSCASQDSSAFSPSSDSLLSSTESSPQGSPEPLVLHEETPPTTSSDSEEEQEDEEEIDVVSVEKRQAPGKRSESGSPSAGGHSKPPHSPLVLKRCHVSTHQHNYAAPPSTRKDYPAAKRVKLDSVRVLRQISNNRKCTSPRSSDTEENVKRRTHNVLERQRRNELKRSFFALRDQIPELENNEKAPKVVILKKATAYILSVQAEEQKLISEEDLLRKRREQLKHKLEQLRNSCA
compound,measurement,setting,value
"CN1CC2(CC(Nc3nccc(Nc4cc(C5CC5)[nH]n4)n3)C2)C1 [Compound 16, N4-(5-Cyclopropyl-1H-pyrazol-3-yl)-N2-(2-methyl-2-azaspiro[3.3]heptan-6-yl)pyrimidine-2,4-diamine]",inhibition at 0.5 µM,MycC protein (c-myc),50 to 79%
same,inhibition at 1 µM,MycC protein (c-myc),80 to 100%
same,inhibition at 3 µM,MycC protein (c-myc),80 to 100%
same,inhibition at 6 µM,MycC protein (c-myc),80 to 100%
same,inhibition at 0.5 µM,MycN protein (n-myc),20 to 49%
same,inhibition at 1 µM,MycN protein (n-myc),20 to 49%
same,inhibition at 3 µM,MycN protein (n-myc),80 to 100%
same,inhibition at 6 µM,MycN protein (n-myc),80 to 100%
"CN(c1nccc(Nc2cc(C3CCCC3)[nH]n2)n1)C1CCN(C2CC2)CC1 [Compound 17, N4-(5-Cyclopentyl-1H-pyrazol-3-yl)-N2-(1-cyclopropylpiperidin-4-yl)-N2-methylpyrimidine-2,4-diamine]",inhibition at 1 µM,MycC protein (c-myc),80 to 100%
same,inhibition at 3 µM,MycC protein (c-myc),80 to 100%
same,inhibition at 6 µM,MycC protein (c-myc),80 to 100%
same,inhibition at 0.5 µM,MycN protein (n-myc),< 20%
same,inhibition at 1 µM,MycN protein (n-myc),20 to 49%
same,inhibition at 3 µM,MycN protein (n-myc),80 to 100%
same,inhibition at 6 µM,MycN protein (n-myc),80 to 100%
"CN(c1nccc(Nc2cc(C3CCCC3)[nH]n2)n1)C1CCNCC1 [Compound 18, N4-(5-Cyclopentyl-1H-pyrazol-3-yl)-N2-methyl-N2-(piperidin-4-yl)pyrimidine-2,4-diamine]",inhibition at 1 µM,MycC protein (c-myc),80 to 100%
same,inhibition at 3 µM,MycC protein (c-myc),80 to 100%
same,inhibition at 6 µM,MycC protein (c-myc),80 to 100%
same,inhibition at 1 µM,MycN protein (n-myc),20 to 49%
same,inhibition at 3 µM,MycN protein (n-myc),80 to 100%
same,inhibition at 6 µM,MycN protein (n-myc),80 to 100%
"CN(c1nccc(Nc2cc(C3CC3)[nH]n2)n1)C1CC2(C1)CN(CC1CCOCC1)C2 [Compound 20, N4-(5-Cyclopropyl-1H-pyrazol-3-yl)-N2-methyl-N2-{2-[(oxan-4-yl)methyl]-2-azaspiro[3.3]heptan-6-yl}pyrimidine-2,4-diamine]",inhibition at 6 µM,MycC protein (c-myc),80 to 100%
same,inhibition at 3 µM,MycN protein (n-myc),20 to 49%
same,inhibition at 6 µM,MycN protein (n-myc),50 to 79%
"CN(c1nccc(Nc2cc(C3CC3)[nH]n2)n1)C1CC2(C1)CN(CC1CC1)C2 [Compound 21, N4-(5-Cyclopropyl-1H-pyrazol-3-yl)-N2-(2-(cyclopropylmethyl)-2-azaspiro[3.3]heptan-6-yl)-N2-methylpyrimidine-2,4-diamine]",inhibition at 1 µM,MycC protein (c-myc),< 20%
same,inhibition at 3 µM,MycC protein (c-myc),50 to 79%
same,inhibition at 6 µM,MycC protein (c-myc),80 to 100%
same,inhibition at 0.5 µM,MycN protein (n-myc),< 20%
same,inhibition at 1 µM,MycN protein (n-myc),20 to 49%
same,inhibition at 3 µM,MycN protein (n-myc),20 to 49%
same,inhibition at 6 µM,MycN protein (n-myc),50 to 79%
"CN(c1nccc(Nc2cc(C3CC3)[nH]n2)n1)C1CC2(C1)CN(CC(=O)Nc1cccc(S(C)(=O)=O)c1)C2 [Compound 23, 2-(6-((4-((5-Cyclopropyl-1H-pyrazol-3-yl)amino)pyrimidin-2-yl)(methyl)amino)-2-azaspiro[3.3]heptan-2-yl)-N-(3-(methylsulfonyl)phenyl)acetamide]",inhibition at 0.5 µM,MycC protein (c-myc),< 20%
same,inhibition at 1 µM,MycC protein (c-myc),50 to 79%
same,inhibition at 3 µM,MycC protein (c-myc),80 to 100%
same,inhibition at 6 µM,MycC protein (c-myc),80 to 100%
same,inhibition at 6 µM,MycN protein (n-myc),80 to 100%
"CN(c1nccc(Nc2cc(C3CC3)[nH]n2)n1)C1CC2(C1)CN(Cc1ccccc1F)C2 [Compound 25, N4-(5-Cyclopropyl-1H-pyrazol-3-yl)-N2-(2-(2-fluorobenzyl)-2-azaspiro[3.3]heptan-6-yl)-N2-methylpyrimidine-2,4-diamine]",inhibition at 0.5 µM,MycC protein (c-myc),20 to 49%
same,inhibition at 1 µM,MycC protein (c-myc),20 to 49%
same,inhibition at 3 µM,MycN protein (n-myc),< 20%
same,inhibition at 6 µM,MycN protein (n-myc),< 20%
"CN(c1nccc(Nc2cc(C3CC3)[nH]n2)n1)C1CC2(C1)CN(Cc1cc(F)cc(F)c1)C2 [Compound 26, N4-(5-Cyclopropyl-1H-pyrazol-3-yl)-N2-(2-(3,5-difluorobenzyl)-2-azaspiro[3.3]heptan-6-yl)-N2-methylpyrimidine-2,4-diamine]",inhibition at 1 µM,MycC protein (c-myc),< 20%
same,inhibition at 3 µM,MycC protein (c-myc),< 20%
same,inhibition at 6 µM,MycC protein (c-myc),80 to 100%
same,inhibition at 1 µM,MycN protein (n-myc),< 20%
same,inhibition at 6 µM,MycN protein (n-myc),20 to 49%
"CN(c1nccc(Nc2cc(C3CC3)[nH]n2)n1)C1CC2(C1)CN(Cc1cccc(OC(F)(F)F)c1)C2 [Compound 27, N4-(5-Cyclopropyl-1H-pyrazol-3-yl)-N2-methyl-N2-(2-(3-(trifluoromethoxy)benzyl)-2-azaspiro[3.3]heptan-6-yl)pyrimidine-2,4-diamine]",inhibition at 0.5 µM,MycC protein (c-myc),< 20%
same,inhibition at 1 µM,MycC protein (c-myc),20 to 49%
same,inhibition at 3 µM,MycC protein (c-myc),50 to 79%
same,inhibition at 6 µM,MycC protein (c-myc),80 to 100%
same,inhibition at 0.5 µM,MycN protein (n-myc),20 to 49%
same,inhibition at 1 µM,MycN protein (n-myc),20 to 49%
same,inhibition at 6 µM,MycN protein (n-myc),< 20%
"CN(c1nccc(Nc2cc(C3CC3)[nH]n2)n1)C1CC2(C1)CN(Cc1cccc(S(C)(=O)=O)c1)C2 [Compound 28, N4-(5-Cyclopropyl-1H-pyrazol-3-yl)-N2-methyl-N2-(2-(3-(methylsulfonyl)benzyl)-2-azaspiro[3.3]heptan-6-yl)pyrimidine-2,4-diamine]",inhibition at 3 µM,MycC protein (c-myc),80 to 100%
same,inhibition at 6 µM,MycC protein (c-myc),80 to 100%
same,inhibition at 6 µM,MycN protein (n-myc),20 to 49%
"CN(c1nccc(Nc2cc(C3CC3)[nH]n2)n1)C1CC2(C1)CN(CCCc1nc3ccccc3o1)C2 [Compound 29, N2-(2-(3-(Benzo[d]oxazol-2-yl)propyl)-2-azaspiro[3.3]heptan-6-yl)-N4-(5-cyclopropyl-1H-pyrazol-3-yl)-N2-methylpyrimidine-2,4-diamine]",inhibition at 0.5 µM,MycC protein (c-myc),50 to 79%
same,inhibition at 1 µM,MycC protein (c-myc),80 to 100%
same,inhibition at 3 µM,MycC protein (c-myc),80 to 100%
same,inhibition at 6 µM,MycC protein (c-myc),80 to 100%
same,inhibition at 0.5 µM,MycN protein (n-myc),20 to 49%
same,inhibition at 1 µM,MycN protein (n-myc),20 to 49%
same,inhibition at 3 µM,MycN protein (n-myc),50 to 79%
same,inhibition at 6 µM,MycN protein (n-myc),80 to 100%
"CN(c1nccc(Nc2cc(C3CC3)[nH]n2)n1)C1CC2(C1)CN(C(=O)c1cn(C)nn1)C2 [Compound 31, (6-((4-((5-Cyclopropyl-1H-pyrazol-3-yl)amino)pyrimidin-2-yl)(methyl)amino)-2-azaspiro[3.3]heptan-2-yl)(1-methyl-1H-1,2,3-triazol-4-yl)methanone]",inhibition at 1 µM,MycC protein (c-myc),80 to 100%
same,inhibition at 3 µM,MycC protein (c-myc),80 to 100%
same,inhibition at 6 µM,MycC protein (c-myc),80 to 100%
same,inhibition at 0.5 µM,MycN protein (n-myc),20 to 49%
same,inhibition at 1 µM,MycN protein (n-myc),50 to 79%
same,inhibition at 3 µM,MycN protein (n-myc),80 to 100%
same,inhibition at 6 µM,MycN protein (n-myc),80 to 100%
"CN(c1nccc(Nc2cc(C3CC3)[nH]n2)n1)C1CC2(C1)CN(C(=O)C1CCOCC1)C2 [Compound 32, (6-((4-((5-Cyclopropyl-1H-pyrazol-3-yl)amino)pyrimidin-2-yl)(methyl)amino)-2 azaspiro[3.3]heptan-2-yl)(tetrahydro-2H-pyran-4-yl)methanone]",inhibition at 3 µM,MycC protein (c-myc),80 to 100%
same,inhibition at 6 µM,MycC protein (c-myc),80 to 100%
same,inhibition at 3 µM,MycN protein (n-myc),80 to 100%
same,inhibition at 6 µM,MycN protein (n-myc),80 to 100%
"Cc1nnsc1C(=O)N1CC2(CC(N(C)c3nccc(Nc4cc(C5CC5)[nH]n4)n3)C2)C1 [Compound 33, (6-((4-((5-Cyclopropyl-1H-pyrazol-3-yl)amino)pyrimidin-2-yl)(methyl)amino)-2-azaspiro[3.3]heptan-2-yl)(4-methyl-1,2,3-thiadiazol-5-yl)methanone]",inhibition at 3 µM,MycC protein (c-myc),80 to 100%
same,inhibition at 6 µM,MycC protein (c-myc),80 to 100%
same,inhibition at 6 µM,MycN protein (n-myc),80 to 100%
"CN(c1nccc(Nc2cc(C3CC3)[nH]n2)n1)C1CC2(C1)CN(C(=O)c1cccc(C(F)(F)F)c1)C2 [Compound 34, (6-((4-((5-Cyclopropyl-1H-pyrazol-3-yl)amino)pyrimidin-2-yl)(methyl)amino)-2 azaspiro[3.3]heptan-2-yl)(3-(trifluoromethyl)phenyl)methanone]",inhibition at 3 µM,MycC protein (c-myc),< 20%
same,inhibition at 6 µM,MycC protein (c-myc),80 to 100%
same,inhibition at 0.5 µM,MycN protein (n-myc),< 20%
same,inhibition at 1 µM,MycN protein (n-myc),< 20%
same,inhibition at 3 µM,MycN protein (n-myc),80 to 100%
same,inhibition at 6 µM,MycN protein (n-myc),80 to 100%
"CN(c1nccc(Nc2cc(C3CC3)[nH]n2)n1)C1CC2(C1)CN(S(=O)(=O)c1cnn(C)c1)C2 [Compound 35, N4-(5-Cyclopropyl-1H-pyrazol-3-yl)-N2-methyl-N2-{2-[(1-methyl-1H-pyrazol-4-yl)sulfonyl]-2-azaspiro[3.3]heptan-6-yl}pyrimidine-2,4-diamine]",inhibition at 0.5 µM,MycC protein (c-myc),20 to 49%
same,inhibition at 1 µM,MycC protein (c-myc),50 to 79%
same,inhibition at 3 µM,MycC protein (c-myc),80 to 100%
same,inhibition at 6 µM,MycC protein (c-myc),80 to 100%
same,inhibition at 0.5 µM,MycN protein (n-myc),< 20%
same,inhibition at 1 µM,MycN protein (n-myc),20 to 49%
same,inhibition at 3 µM,MycN protein (n-myc),50 to 79%
same,inhibition at 6 µM,MycN protein (n-myc),80 to 100%
